Test results reported in US20090281049A1, “New use of ginsenoside compound-k in manufacturing medicaments” (priority 2006, published 2009).

Assays:
[1] = tested on: carrageenan-induced acute inflammation in mice; experiment: Carrageenan-induced paw edema in mice; format: in vivo, Kunming mice; conditions: 1 mg/kg po
[2] = tested on: Adjuvant Arthritis in rats; experiment: Treatment effect on adjuvant induced adjuvant arthritis in rats; format: in vivo, Rat, SD strain; conditions: 1 mg/kg po
Description: (§1) Freund's Adjuvant Complete, purchased from Sigma Company, was injected into the plantar surface of the right hind paw by 0.1 ml in order to induce inflammation in rats.
(§2) Animals were firstly divided into large dose group: 10 mg/kg, iv, medium dose group: 5 mg/kg, iv, small dose group: 2.5 mg/kg, iv, Indomethacin group: 1 mg/kg, po, Tripterygium Wilfordii Hook group: 1.5 mg/kg, po. and blank control group: physiological saline 10 mg/kg, iv. The volume of the right hind paw of the rats was measured by using hydroplethismometer before inflammation induced. Then 0.1 ml Freund's Adjuvant Complete was injected into the plantar surface of the right hind paw in order to induce inflammation in rats. 20 days after inflammation induced, the rats were grouped by the foregoing division method and to be administered for 8 days. The volume of paw was measured in regular intervals. Swell rate and inhibition rate were calculated with the same method as the foregoing. Differences among groups were compared with t test.

[3] = tested on: Adjuvant Arthritis in rats; experiment: Preventive effect on adjuvant induced adjuvant arthritis in rats; format: in vivo, Rat, SD strain; conditions: 1 mg/kg po
Description: as §1
as §2, with “mg/kg, po” for “mg/kg, po.”, “rats. The” for “rats. 20 days after inflammation induced, the”, “division way in the succeeding day,” for “division method”, “for 15” for “for 8”, “calculated by” for “calculated with”, “compared by” for “compared with”

[4] = tested on: carrageenan-induced acute inflammation in rats; experiment: Carrageenan-induced paw edema in rats; format: in vivo, Rat, SD strain; conditions: 1 mg/kg po
Description: Animals were firstly divided into large dose group: 10 mg/kg, iv, medium dose group: 5 mg/kg, iv, small dose group: 2.5 mg/kg, iv, an Indomethacin group: 1 mg/kg, po and a blank control group: physiological saline 10 mg/kg, iv. The animals were administered by the foregoing method for 3 days. The volume of the right hind paw of the rats was measured using hydroplethismometer before inflammation induced. 1 hour after the last administration, 0.1 ml 1% carrageenan was injected into the plantar surface of the right hind paw in order to induce inflammation. The volume of the right hind paw of the rats was measured by hydroplethismometer every other hour thereafter respectively. Swell rate and inhibition rate were calculated by the same method as above. Differences among groups were compared with t test.

[5] = tested on: Collagen Type II (CII) induced arthritis in rats; experiment: Preventive effect on Collagen Type II (CII) induced arthritis in rats; format: in vivo, Rat, SD strain; conditions: 9 mg/kg sc
Description: (§3) Inflammation-induced agent: Collagen Type II was dissolved in 0.1 mol/L acetic acid to make final concentration be 2 mg/ml collagen solution, and held in 4° C. overnight. The Collagen Type II solution was added to cold Freund's Adjuvant Incomplete by drops (Collagen Type II: Freund's Adjuvant Incomplete=1:1) on the next day, emulsified completely (Type II Collagen solution: Freund's Adjuvant Incomplete=1:1), and the final concentration of Collagen Type II was 1 mg/ml. The Collagen Type II emulsion was reserved in a refrigerator at 4° C.
(§4) Immune method: Each rat was immunized by being injected subcutaneously at 5 points on the back with 0.1 ml emulsion in each point, total of […] (contained 0.5 mg Collagen Type II), and immunized again in the same way 7 days later. An emulsion of 0.1 mol/L acetic acid and Freund's Adjuvant Incomplete was injected in control group. The swell values of the arthrosis in right hind ankle and foot were measured respectively by using a hydroplethismometer before injection and 20 days after immunization.
The Collagen Type II solution, which had been dissolved in acetic acid and held overnight, was adjusted to concentration 2 mg/ml, then added by drops slowly to Freund's Adjuvant Incomplete in proportion of 1:1. After the mixture was emulsified completely, each rat was injected subcutaneously at 5 points on the back with 0.1 ml emulsion in each point (total 0.5 ml in each rat, containing 0.5 mg Collagen Type II) for the first immunization. 7 days later, the second immunization was repeated in the same way.
The animals were divided into large dose group: Ginsenoside Compound-K, 10 mg/kg, iv, medium dose group: Ginsenoside Compound-K, 5 mg/kg, iv, small dose group: Ginsenoside Compound-K, 2.5 mg/kg, iv, Tripterygium Wilfordii Hook group: 1.5 mg/kg, po-, Enbrel group: 9 mg/kg, sc and blank control group: physiological saline 10 mg/kg, iv. The animals of administration groups were administered at the first immunization and stopped administering 8 days after the first immunization. The swell value of arthrosis in ankle and foot was measured by using hydroplethismometer before immunization and on day 20, 22, 24, 27 and 29 after the first immunization respectively. Swell rate and inhibition rate were calculated by the same method as the foregoing. Differences among groups were compared with t test. When the treatment finished, the arthroses in ankle and foot were taken for pathological examination.

[6] = tested on: Collagen Type II (CII) induced arthritis in rats; experiment: Treatment effect on Collagen Type II (CII) induced arthritis in rats; format: in vivo, Rat, SD strain; conditions: 9 mg/kg sc
Description: as §3, §4
Collagen Type II (CII) and Freund's Adjuvant Incomplete were ground into emulsion and were injected subcutaneously into the back of the rats for immunization. Until the 19th day, most parts of the pedal joint of the rats began to swell. Picked 40 rats out which were with swelled pedal joint and divided them into […] subsequently, i.e. 8 rats in each group. They are respectively […]: Ginsenoside Compound-K, 10 mg/kg, iv, medium dose group: Ginsenoside Compound-K, 5 mg/kg, iv, small dose group: Ginsenoside Compound-K, 2.5 mg/kg, iv, Enbrel group: 9 mg/kg, sc, Tripterygium Wilfordii Hook group: 1.5 mg/kg, po. and blank control group: physiological saline 10 mg/kg, iv. The rats were administered for 8 days consecutively. The swell value of the foot was measured respectively by using hydroplethismometer before inflammation induced and at different time after the onset of symptoms, then calculated swell rate and prohibition rate, and compared the differences among groups with t test.

COc1ccc2c(c1)c(CC(=O)O)c(C)n2C(=O)c1ccc(Cl)cc1 [Indomethacin, reference compound]
swell value ([1]; 0 h): 1.47 ± 0.14 mL | inhibition rate ([1]; 1 h): <2.39> % | swell rate ([1]; 1 h): (67.11 ± 17.30) % | swell value ([1]; 1 h): 2.44 ± 0.19 mL | inhibition rate ([1]; 2 h): <16.11> % | swell rate ([1]; 2 h): (60.95 ± 18.36) % | swell value ([1]; 2 h): 2.35 ± 0.20 mL | inhibition rate ([1]; 4 h): <36.57> % | swell rate ([1]; 4 h): (51.04 ± 14.09) % | swell value ([1]; 4 h): 2.21 ± 0.11 mL | inhibition rate ([1]; 6 h): <24.41> % | swell rate ([1]; 6 h): (55.36 ± 19.90) % | swell value ([1]; 6 h): 2.26 ± 0.11 mL | swell value ([2]; 0 day): 1.14 ± 0.05 mL | inhibition rate ([2]; 19 day): <18.65> % | swell rate ([2]; 19 day): (80.03 ± 17.69) % | swell value ([2]; 19 day): 2.04 ± 0.20 mL | inhibition rate ([2]; 21 day): <19.05> % | swell rate ([2]; 21 day): (85.98 ± 15.49) % | swell value ([2]; 21 day): 2.11 ± 0.17 mL | inhibition rate ([2]; 23 day): <19.09> % | swell rate ([2]; 23 day): (86.16 ± 15.90) % | swell value ([2]; 23 day): 2.11 ± 0.17 mL | inhibition rate ([2]; 26 day): <20.41> % | swell rate ([2]; 26 day): (89.32 ± 16.25) % | swell value ([2]; 26 day): 2.15 ± 0.16 mL | inhibition rate ([2]; 30 day): <12.14> % | swell rate ([2]; 30 day): (92.39 ± 20.26) % | swell value ([2]; 30 day): 2.18 ± 0.23 mL | swell value ([3]; 0 day): 1.23 ± 0.11 mL | inhibition rate ([3]; 2 day): <27.67> % | swell rate ([3]; 2 day): (52.34 ± 15.07) % | swell value ([3]; 2 day): 1.85 ± 0.09 mL | inhibition rate ([3]; 4 day): <20.69> % | swell rate ([3]; 4 day): (70.99 ± 17.35) % | swell value ([3]; 4 day): 2.08 ± 0.13 mL | inhibition rate ([3]; 6 day): <12.34> % | swell rate ([3]; 6 day): (78.32 ± 23.41) % | swell value ([3]; 6 day): 2.17 ± 0.17 mL | inhibition rate ([3]; 9 day): <4.11> % | swell rate ([3]; 9 day): (69.44 ± 27.12) % | swell value ([3]; 9 day): 2.06 ± 0.23 mL | inhibition rate ([3]; 11 day): <32.39> % | swell rate ([3]; 11 day): (52.68 ± 12.02) % | swell value ([3]; 11 day): 1.86 ± 0.13 mL | inhibition rate ([3]; 13 day): <35.93> % | swell rate ([3]; 13 day): (53.00 ± 15.57) % | swell value ([3]; 13 day): 1.86 ± 0.13 mL | inhibition rate ([3]; 15 day): <35.50> % | swell rate ([3]; 15 day): (52.00 ± 11.27) % | swell value ([3]; 15 day): 1.86 ± 0.13 mL | swell value ([4]; 0 h): 1.34 ± 0.15 mL | inhibition rate ([4]; 1 h): <4.23> % | swell rate ([4]; 1 h): (22.51 ± 10.19) % | swell value ([4]; 1 h): 1.68 ± 0.10 mL | inhibition rate ([4]; 2 h): <20.44> % | swell rate ([4]; 2 h): (25.65 ± 14.10) % | swell value ([4]; 2 h): 1.72 ± 0.16 mL | inhibition rate ([4]; 3 h): <20.17> % | swell rate ([4]; 3 h): (33.28 ± 13.54) % | swell value ([4]; 3 h): 1.82 ± 0.17 mL | inhibition rate ([4]; 4 h): <26.76> % | swell rate ([4]; 4 h): (28.45 ± 15.71) % | swell value ([4]; 4 h): 1.77 ± 0.22 mL | inhibition rate ([4]; 5 h): <37.84> % | swell rate ([4]; 5 h): (23.04 ± 11.45) % | swell value ([4]; 5 h): 1.69 ± 0.15 mL

enbrel
swell value ([5]; 0 day): 1.06 ± 0.04 mL | inhibition rate ([5]; 20 day): <30.52> % | swell rate ([5]; 20 day): (36.48 ± 15.50) % | swell value ([5]; 20 day): 1.38 ± 0.20 mL | inhibition rate ([5]; 22 day): <31.53> % | swell rate ([5]; 22 day): (35.30 ± 14.25) % | swell value ([5]; 22 day): 1.36 ± 0.22 mL | inhibition rate ([5]; 24 day): <35.50> % | swell rate ([5]; 24 day): (33.88 ± 13.57) % | swell value ([5]; 24 day): 1.34 ± 0.21 mL | inhibition rate ([5]; 27 day): <36.49> % | swell rate ([5]; 27 day): (32.16 ± 15.12) % | swell value ([5]; 27 day): 1.34 ± 0.20 mL | inhibition rate ([5]; 29 day): <36.99> % | swell rate ([5]; 29 day): (27.63 ± 10.87) % | swell value ([5]; 29 day): 1.31 ± 0.16 mL | swell value ([6]; 0 day): 1.00 ± 0.08 mL | inhibition rate ([6]; 20 day): <4.41> % | swell rate ([6]; 20 day): (51.65 ± 15.35% | swell value ([6]; 20 day): 1.51 ± 0.11 mL | inhibition rate ([6]; 22 day): <17.61> % | swell rate ([6]; 22 day): (49.63 ± 25.60) % | swell value ([6]; 22 day): 1.48 ± 0.15 mL | inhibition rate ([6]; 23 day): <20.98> % | swell rate ([6]; 23 day): (49.20 ± 19.86) % | swell value ([6]; 23 day): 1.48 ± 0.12 mL | inhibition rate ([6]; 25 day): <24.74> % | swell rate ([6]; 25 day): (46.43 ± 15.37) % | swell value ([6]; 25 day): 1.46 ± 0.11 mL | inhibition rate ([6]; 28 day): <27.88> % | swell rate ([6]; 28 day): (37.24 ± 17.23) % | swell value ([6]; 28 day): 1.36 ± 0.09 mL | inhibition rate ([6]; 31 day): <26.03> % | swell rate ([6]; 31 day): (36.24 ± 14.64) % | swell value ([6]; 31 day): 1.35 ± 0.08 mL
